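Following 48 hours of exposure in 96-well plates, responses at five concentrations were used to interpolate endpoints linearly. TGI denotes the concentration required for complete inhibition of growth.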 A value given as a limit tells only on which side of the number the result lay.

The subject of the first test is HOP-92 NSCLC. The test can be described thus: NCI anticancer screen, dose series, 48 h.
In turn, `CCN(CC)CCC(=O)c1ccc(Oc2ccc(Cl)cc2)cc1` yielded a TGI of 32.8 µM.
The same measure, in the same setting: with `COc1ccc(/C=C(/C#N)C(N)=O)cc1OC` the figure was greater than 100 µM; with `CCOC(=O)C1(C(=O)OCC)Nc2cccnc2N(C)N1`, 29.7 µM.

For a further test, the system named is HS 578T breast. The test can be described thus: NCI anticancer screen, dose series, 48 h.
`CCN(CC)CCC(=O)c1ccc(Oc2ccc(Cl)cc2)cc1` had a TGI of 59 µM.
In the case of `CC1CNc2ccccc2N=C1NN` (stereo unspecified), the TGI was greater than 100 µM.
Still for that read-out and setting: with `COc1ccc(/C=C(/C#N)C(N)=O)cc1OC` the figure was greater than 100 µM; with `CCOC(=O)C1(C(=O)OCC)Nc2cccnc2N(C)N1`, greater than 100 µM.

The next test deals with HT29 colon. The test can be described thus: NCI anticancer screen, dose series, 48 h.
Turning to `CCN(CC)CCC(=O)c1ccc(Oc2ccc(Cl)cc2)cc1`, the TGI came to 47.2 µM.
`CC1CNc2ccccc2N=C1NN` (stereo unspecified) had a TGI greater than 100 µM.
Same read-out and setting: with `COc1ccc(/C=C(/C#N)C(N)=O)cc1OC` the figure was greater than 100 µM; with `CCOC(=O)C1(C(=O)OCC)Nc2cccnc2N(C)N1`, 32.2 µM.

A further test has as its system IGROV1 ovarian. The test can be described thus: NCI anticancer screen, dose series, 48 h.
In the case of `CCN(CC)CCC(=O)c1ccc(Oc2ccc(Cl)cc2)cc1`, the TGI is 41.8 µM.
The same measure, in the same setting: the same measure for `CC1CNc2ccccc2N=C1NN` (stereo unspecified): greater than 100 µM; for `COc1ccc(/C=C(/C#N)C(N)=O)cc1OC`: greater than 100 µM.
On the same count and under the same terms, the same measure for `CCOC(=O)C1(C(=O)OCC)Nc2cccnc2N(C)N1`: 42.1 µM.

A further test has as its system K-562 leukemia. As to the kind of experiment: NCI anticancer screen, dose series, 48 h.
`CCN(CC)CCC(=O)c1ccc(Oc2ccc(Cl)cc2)cc1` gave a TGI greater than 100 µM.
The molecule `CC1CNc2ccccc2N=C1NN` (stereo unspecified) came in with a TGI greater than 100 µM.
`COc1ccc(/C=C(/C#N)C(N)=O)cc1OC` had a TGI greater than 100 µM.
Turning to `CCOC(=O)C1(C(=O)OCC)Nc2cccnc2N(C)N1`, the TGI worked out at 49.9 µM.

For the next test, the system named is KM12 colon. The test can be described thus: NCI anticancer screen, dose series, 48 h.
Regarding `CCN(CC)CCC(=O)c1ccc(Oc2ccc(Cl)cc2)cc1`, the TGI was 32.2 µM.
Same read-out and setting: the same measure for `CC1CNc2ccccc2N=C1NN` (stereo unspecified): greater than 100 µM; for `COc1ccc(/C=C(/C#N)C(N)=O)cc1OC`: greater than 100 µM; for `CCOC(=O)C1(C(=O)OCC)Nc2cccnc2N(C)N1`: greater than 100 µM.

The next test has as its system LOX IMVI melanoma. As to the kind of experiment: NCI anticancer screen, dose series, 48 h.
`CCN(CC)CCC(=O)c1ccc(Oc2ccc(Cl)cc2)cc1`: the TGI amounted to 28.8 µM.
In turn, `CC1CNc2ccccc2N=C1NN` (stereo unspecified) yielded a TGI greater than 100 µM.
Turning to `COc1ccc(/C=C(/C#N)C(N)=O)cc1OC`, the TGI is greater than 100 µM.
The same measure, in the same setting: the same measure for `CCOC(=O)C1(C(=O)OCC)Nc2cccnc2N(C)N1`: 52.6 µM.

The test system of another test is M14 melanoma. As to the kind of experiment: NCI anticancer screen, dose series, 48 h.
The molecule `CCN(CC)CCC(=O)c1ccc(Oc2ccc(Cl)cc2)cc1` returned a TGI of 28.3 µM.
The same measure, in the same setting: with `CC1CNc2ccccc2N=C1NN` (stereo unspecified) the figure was greater than 100 µM; with `COc1ccc(/C=C(/C#N)C(N)=O)cc1OC`, greater than 100 µM.
Same read-out and setting: with `CCOC(=O)C1(C(=O)OCC)Nc2cccnc2N(C)N1` the figure was 39.1 µM.

A further test has as its system MALME-3M melanoma. The test can be described thus: NCI anticancer screen, dose series, 48 h.
As to `CCN(CC)CCC(=O)c1ccc(Oc2ccc(Cl)cc2)cc1`, the TGI was 34.8 µM.
In turn, `CC1CNc2ccccc2N=C1NN` (stereo unspecified) came in with a TGI greater than 100 µM.
On the same count and under the same terms, with `COc1ccc(/C=C(/C#N)C(N)=O)cc1OC` the figure was greater than 100 µM; with `CCOC(=O)C1(C(=O)OCC)Nc2cccnc2N(C)N1`, greater than 100 µM.

A further test has as its system MCF7 breast. The test can be described thus: NCI anticancer screen, dose series, 48 h.
The molecule `CCN(CC)CCC(=O)c1ccc(Oc2ccc(Cl)cc2)cc1` yielded a TGI of 55.9 µM.
The molecule `CC1CNc2ccccc2N=C1NN` (stereo unspecified) gave a TGI greater than 100 µM.
Same read-out and setting: the same measure for `COc1ccc(/C=C(/C#N)C(N)=O)cc1OC`: greater than 100 µM; for `CCOC(=O)C1(C(=O)OCC)Nc2cccnc2N(C)N1`: 34.8 µM.

The subject of another test is MDA-MB-231 breast. As to the kind of experiment: NCI anticancer screen, dose series, 48 h.
`CCN(CC)CCC(=O)c1ccc(Oc2ccc(Cl)cc2)cc1` came in with a TGI of 29.2 µM.
In turn, `CC1CNc2ccccc2N=C1NN` (stereo unspecified) returned a TGI greater than 100 µM.
The same measure, in the same setting: the same measure for `COc1ccc(/C=C(/C#N)C(N)=O)cc1OC`: greater than 100 µM; for `CCOC(=O)C1(C(=O)OCC)Nc2cccnc2N(C)N1`: 40.4 µM.

The test system of the next test is MDA-MB-435. The test can be described thus: NCI anticancer screen, dose series, 48 h.
In turn, `CCN(CC)CCC(=O)c1ccc(Oc2ccc(Cl)cc2)cc1` yielded a TGI of 34.2 µM.
Still for that read-out and setting: with `CC1CNc2ccccc2N=C1NN` (stereo unspecified) the figure was greater than 100 µM; with `COc1ccc(/C=C(/C#N)C(N)=O)cc1OC`, greater than 100 µM; with `CCOC(=O)C1(C(=O)OCC)Nc2cccnc2N(C)N1`, 36 µM.

The next test relates to MDA-N. As to the kind of experiment: NCI anticancer screen, dose series, 48 h.
The molecule `CCN(CC)CCC(=O)c1ccc(Oc2ccc(Cl)cc2)cc1` gave a TGI of 29.6 µM.
On the same count and under the same terms, the same measure for `CC1CNc2ccccc2N=C1NN` (stereo unspecified): greater than 100 µM; for `COc1ccc(/C=C(/C#N)C(N)=O)cc1OC`: greater than 100 µM; for `CCOC(=O)C1(C(=O)OCC)Nc2cccnc2N(C)N1`: 35.4 µM.

The subject of the next test is MOLT-4 leukemia. As to the kind of experiment: NCI anticancer screen, dose series, 48 h.
In turn, `CCN(CC)CCC(=O)c1ccc(Oc2ccc(Cl)cc2)cc1` returned a TGI of 42.2 µM.
In turn, `COc1ccc(/C=C(/C#N)C(N)=O)cc1OC` returned a TGI greater than 100 µM.
Consider `CCOC(=O)C1(C(=O)OCC)Nc2cccnc2N(C)N1`, for which the TGI was 55.3 µM.

The test system of another test is NCI-H226 lung. The test can be described thus: NCI anticancer screen, dose series, 48 h.
In turn, `CC1CNc2ccccc2N=C1NN` (stereo unspecified) gave a TGI greater than 100 µM.
Same read-out and setting: with `COc1ccc(/C=C(/C#N)C(N)=O)cc1OC` the figure was greater than 100 µM.

Values taken from PubChem BioAssay (NCI).
